In US20070037788A1, “Tricyclic steroid hormone nuclear receptor modulators” (Eli Lilly and Company, priority 2003, published 2007):
Where a name gives a salt, the structure may show the parent alone.

These compounds were tested against T1, human MR (Homo sapiens, UniProt P08235) (assay: Mineralocorticoid Receptor Binding Assay (Method 1)). Settings: [3H]-aldosterone.
T1 construct: The full length human MR gene is cloned from a human kidney or human brain cDNA library; made in house; host or cells: SF9 insect cells (baculovirus)
T1 sequence (P08235 1-984): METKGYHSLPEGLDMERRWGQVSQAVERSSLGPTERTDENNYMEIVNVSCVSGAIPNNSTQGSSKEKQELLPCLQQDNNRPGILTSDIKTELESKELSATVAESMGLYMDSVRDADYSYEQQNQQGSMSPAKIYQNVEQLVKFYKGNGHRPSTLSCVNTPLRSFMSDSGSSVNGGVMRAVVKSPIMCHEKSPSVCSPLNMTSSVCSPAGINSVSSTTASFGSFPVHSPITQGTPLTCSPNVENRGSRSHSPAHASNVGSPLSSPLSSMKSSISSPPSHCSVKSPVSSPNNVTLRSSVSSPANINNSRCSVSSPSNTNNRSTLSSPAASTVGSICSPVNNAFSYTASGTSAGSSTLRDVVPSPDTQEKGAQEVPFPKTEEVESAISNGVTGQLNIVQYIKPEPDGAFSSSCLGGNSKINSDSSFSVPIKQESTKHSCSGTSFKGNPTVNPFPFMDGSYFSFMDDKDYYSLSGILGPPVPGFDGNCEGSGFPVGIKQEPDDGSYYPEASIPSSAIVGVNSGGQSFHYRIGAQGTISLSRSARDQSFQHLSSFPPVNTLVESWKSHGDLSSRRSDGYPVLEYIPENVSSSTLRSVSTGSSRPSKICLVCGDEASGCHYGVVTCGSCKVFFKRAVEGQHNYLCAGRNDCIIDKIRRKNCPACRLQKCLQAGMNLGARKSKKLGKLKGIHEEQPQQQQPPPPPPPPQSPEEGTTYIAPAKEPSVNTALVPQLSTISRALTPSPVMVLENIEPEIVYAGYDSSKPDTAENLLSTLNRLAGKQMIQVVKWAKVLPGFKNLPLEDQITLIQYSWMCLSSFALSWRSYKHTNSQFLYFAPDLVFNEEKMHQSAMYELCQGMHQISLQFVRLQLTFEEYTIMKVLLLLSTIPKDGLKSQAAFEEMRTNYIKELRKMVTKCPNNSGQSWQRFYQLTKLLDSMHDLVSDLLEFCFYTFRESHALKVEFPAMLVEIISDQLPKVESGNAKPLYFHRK
Protocol: The full length human MR gene is cloned from a human kidney or human brain cDNA library. Briefly, using synthetic oligonucleotide primers (Eli Lilly and Company, Indianapolis) directed to nucleotides 20-54 and 3700-3666 of the human MR, polymerase chain reaction (PCR) is performed under standard conditions using a human cDNA library. The PCR reaction is performed in a final volume of 50 μl containing about 1 μl of a 50× stock solution of polymerase; about 1 μl of a 50× stock solution of DNTP; about 5 μl of an appropriate PCR buffer; about 1 μl of each primer; about 5 μl of a H. kidney or H. brain cDNA library; and about 36 μl of water. The reaction is allowed to denature for about 30 seconds at 95 degrees Celsius, anneal for about 30 seconds at 55 degrees Celsius, and extend for about 5 minutes at 72 degrees Celsius, the sequence being repeated for a total of about 35 cycles. The desired PCR product (3.68 Kb) is confirmed by gel electrophoresis and subsequently cut from the gel and stored at about −20 degrees Celsius until extraction. To extract the cDNA product from the agarose gel, the QIAEX II Gel Extraction protocol (QIAGEN, Inc.) is employed according to the manufacturer's instructions. Following extraction, the MR cDNA is cloned into an appropriate cloning vector (Zero Blunt TOPO PCR Cloning Kit (Invitrogen, Inc.) and a pAcHLT-baculovirus transfer vector (B.D./Pharminogen), then expressed in SF9 insect cells, essentially according to manufacturer's instructions. Sf9 cells are grown at a scale where gram quantity cell pellets are obtained for subsequent use in the MR binding assay. Harvested cell pellets are lysed by repeated freeze-thaw cycles (about 4) in a suitable lysis buffer then centrifuged at about 1×10^3 G (with the supernatant being saved for future assays).
MR binding assays are performed in a final total volume of about 250 μl containing about 20-25 μg of protein and 0.5 nM of [^3H]-aldosterone plus varying concentrations of test compound or vehicle. The assay binding buffer consists of 30 mM sodium molybdate, 30 mM of TRIS-HCl, 5 mM sodium phosphate, 5 mM sodium pyrophosphate, and about 10% glycerol, pH=7.5.
Briefly, assays are prepared at RT in 96-well Falcon 3072 plates, each well containing 210 μl of binding buffer, 10 μl of [^3H]-aldosterone, 10 μl of test compound/vehicle, and 20 μl of the resuspended receptor protein extract. Incubations are carried out at 4 degrees Celsius with shaking for about 16 hours. 200 μl aliquots of each incubation are filtered onto Millipore HA 0.45 micron 96-well filter plates, pre-moistened with cold 30 mM TRIS-HCl. The filter plates are suctioned dry with vacuum and immediately washed 3× with cold 30 mM TRIS-HCl. The plates are then punched out and the amount of receptor-ligand complex is determined by liquid scintillation counting using 4 ml of Ready Protein Plus™ liquid scintillation cocktail.

SMILES	Ki [µM]
CC(C)(CN1CCOCC1)n1c(=O)[nH]c2cc(/C=C3\c4ccccc4COc4cc(F)ccc43)ccc21 [Example 1, 1-(1,1-Dimethyl-2-morpholin-4-yl-ethyl)-5-(3-fluoro-6H-dibenzo[b,e]oxepin-11-ylidenemethyl)-1,3-dihydro-benzoimidazol-2-one, E isomer]	< 0.5
CN1CCC(n2c(=O)[nH]c3cc(/C=C4/c5ccc(F)cc5OCc5c(F)cccc54)ccc32)CC1 [Example 2, 5-(3,7-Difluoro-6H-dibenzo[b,e]oxepine-11-ylidenemethyl)-1-(1-methyl-piperidin-4-yl)-1,3-dihydro-benzoimidazol-2-one, E-isomer]	< 0.5
CN1CCC(n2c(=O)[nH]c3cc(/C=C4\c5ccccc5COc5cc(F)ccc54)ccc32)CC1 [Example 3, 5-(3-Fluoro-6H-dibenzo[b,e]oxepin-11-ylidenemethyl)-1-(1-methyl-piperidin-4-yl)-1,3-dihydro-benzoimidazol-2-one, E isomer]	< 0.5
CN1CCC(n2c(=O)[nH]c3cc(/C=C4\c5ccc(F)cc5COc5cc(F)ccc54)ccc32)CC1 [Example 4, 5-(3,8-Difluoro-6H-dibenzo[b,e]oxepin-11-ylidenemethyl)-1-(1-methyl-piperidin-4-yl) -1,3-dihydro-benzoimidazol-2-one, E isomer]	< 0.5
CCN1CC[C@@H](n2c(=O)[nH]c3cc(/C=C4\c5ccc(F)cc5COc5cc(F)ccc54)ccc32)C1 [Example 5, 5-(3,8-Difluoro-6H-dibenzo[b,e]oxepin-11-ylidenemethyl)-1-(1-ethyl-pyrrolidin-3-yl) -1,3-dihydro-benzoimidazol-2-one, HOAc salt, E isomer, chiral]	< 0.5
CN1CCN(CCCn2c(=O)[nH]c3cc(/C=C4\c5ccccc5COc5cc(F)ccc54)ccc32)CC1 [Example 7]	< 0.5
CN1CCN(CCn2c(=O)[nH]c3cc(/C=C4\c5ccccc5COc5cc(F)ccc54)ccc32)CC1 [Example 8]	< 0.5
O=c1[nH]c2cc(/C=C3\c4ccccc4COc4cc(F)ccc43)ccc2n1[C@H]1CCNC1 [Example 9]	< 0.5
C[C@H](CN1CCOCC1)n1c(=O)[nH]c2cc(/C=C3\c4ccccc4COc4cc(F)ccc43)ccc21 [Example 10]	< 0.5
C[C@@H](CN1CCOCC1)n1c(=O)[nH]c2cc(/C=C3\c4ccccc4COc4cc(F)ccc43)ccc21 [Example 11]	< 0.5
O=c1[nH]c2cc(/C=C3\c4ccccc4COc4cc(F)ccc43)ccc2n1C1CCNCC1 [Example 12]	< 0.5
C[C@@H]1CN(CCn2c(=O)[nH]c3cc(/C=C4\c5ccccc5COc5cc(F)ccc54)ccc32)C[C@H](C)O1 [Example 13]	< 0.5
O=c1[nH]c2cc(/C=C3\c4ccccc4COc4cc(F)ccc43)ccc2n1CCN1CCNCC1 [Example 14]	< 0.5
O=c1[nH]c2cc(/C=C3\c4ccccc4COc4cc(F)ccc43)ccc2n1C1CCNC1 (centres unmarked) [Example 15]	< 0.5
O=c1[nH]c2cc(/C=C3\c4ccccc4COc4cc(F)ccc43)ccc2n1C1CCNC1 (centres unmarked) [Example 16]	< 0.5
O=c1[nH]c2cc(/C=C3\c4ccccc4COc4cc(F)ccc43)ccc2n1C1CNC1 [Example 17]	< 0.5
O=c1[nH]c2cc(/C=C3\c4ccccc4COc4cc(F)ccc43)ccc2n1C[C@@H]1CCCN1 [Example 18]	< 0.5

Continued, values first:

Ki [µM]	SMILES
< 0.5	O=c1[nH]c2cc(/C=C3\c4ccccc4COc4cc(F)ccc43)ccc2n1C[C@H]1CCCN1 [Example 19]
< 0.5	CN1CCN(CCn2c(=O)[nH]c3cc(/C=C4\c5ccc(F)cc5COc5cc(F)ccc54)ccc32)CC1 [Example 20]
< 0.5	O=c1[nH]c2cc(/C=C3\c4ccc(F)cc4COc4cc(F)ccc43)ccc2n1CCN1CCCC1 [Example 21]
< 0.5	C[C@H](CN1CCOCC1)n1c(=O)[nH]c2cc(/C=C3\c4ccc(F)cc4COc4cc(F)ccc43)ccc21 [Example 22]
< 0.5	C[C@@H](CN1CCOCC1)n1c(=O)[nH]c2cc(/C=C3\c4ccc(F)cc4COc4cc(F)ccc43)ccc21 [Example 23]
< 0.5	CC(C)(CN1CCOCC1)n1c(=O)[nH]c2cc(/C=C3\c4ccc(F)cc4COc4cc(F)ccc43)ccc21 [Example 24]
< 0.5	C[C@@H]1CN(CCn2c(=O)[nH]c3cc(/C=C4\c5ccc(F)cc5COc5cc(F)ccc54)ccc32)C[C@H](C)O1 [Example 25]
< 0.5	O=c1[nH]c2cc(/C=C3\c4ccc(F)cc4COc4cc(F)ccc43)ccc2n1CCCN1CCOCC1 [Example 26]
< 0.5	O=c1[nH]c2cc(/C=C3\c4ccc(F)cc4COc4cc(F)ccc43)ccc2n1C1CCNCC1 [Example 28]
< 0.5	O=c1[nH]c2cc(/C=C3\c4ccc(F)cc4COc4cc(F)ccc43)ccc2n1[C@H]1CCNC1 [Example 29]
< 0.5	O=c1[nH]c2cc(/C=C3\c4ccc(F)cc4COc4cc(F)ccc43)ccc2n1C1CNC1 [Example 30]
< 0.5	O=c1[nH]c2cc(/C=C3\c4ccc(F)cc4COc4cc(F)ccc43)ccc2n1[C@@H]1CCNC1 [Example 31]
< 0.5	CN1CC[C@H](n2c(=O)[nH]c3cc(/C=C4\c5ccc(F)cc5COc5cc(F)ccc54)ccc32)C1 [Example 32]
< 0.5	CCN1CC[C@H](n2c(=O)[nH]c3cc(/C=C4\c5ccc(F)cc5COc5cc(F)ccc54)ccc32)C1 [Example 33]
< 0.5	CN1CCN(CCn2c(=O)[nH]c3cc(/C=C4/c5ccc(F)cc5OCc5c(F)cccc54)ccc32)CC1 [Example 34]
< 0.5	O=c1[nH]c2cc(/C=C3/c4ccc(F)cc4OCc4c(F)cccc43)ccc2n1CCN1CCCC1 [Example 35]
< 0.5	O=c1[nH]c2cc(/C=C3/c4ccc(F)cc4OCc4c(F)cccc43)ccc2n1C1CCNCC1 [Example 36]
< 0.5	O=c1[nH]c2cc(/C=C3/c4ccc(F)cc4OCc4c(F)cccc43)ccc2n1[C@H]1CCNC1 [Example 37]
< 0.5	C[C@H](CN1CCOCC1)n1c(=O)[nH]c2cc(/C=C3/c4ccc(F)cc4OCc4c(F)cccc43)ccc21 [Example 38]
< 0.5	C[C@@H](CN1CCOCC1)n1c(=O)[nH]c2cc(/C=C3/c4ccc(F)cc4OCc4c(F)cccc43)ccc21 [Example 39]
< 0.5	CC(C)(CN1CCOCC1)n1c(=O)[nH]c2cc(/C=C3/c4ccc(F)cc4OCc4c(F)cccc43)ccc21 [Example 40]
< 0.5	C[C@@H]1CN(CCn2c(=O)[nH]c3cc(/C=C4/c5ccc(F)cc5OCc5c(F)cccc54)ccc32)C[C@H](C)O1 [Example 41]
< 0.5	O=c1[nH]c2cc(/C=C3/c4ccc(F)cc4OCc4c(F)cccc43)ccc2n1CCCN1CCOCC1 [Example 42]
< 0.5	O=c1[nH]c2cc(/C=C3/c4ccc(F)cc4OCc4c(F)cccc43)ccc2n1CCN1CCNCC1 [Example 43]
